We go through two molecules from patent publication US20250073357A1, “GADOLINIUM-BASED COMPOUND, AND MRI CONTRAST AGENT INCLUDING SAME” (THERANOCURE CO., LTD., priority 2021, published 2025).

The nature of data set [1]: Measurement of relaxivity (r1, r2), phantom in 3T MRI. In kind it is physicochemical. To be noted: tertiary distilled water, 0.0625-1 mM, linear regression, in mM-1 s-1 (unit assumed). The protocol: The relaxivity (r1, r2) of each of synthesized Gd-DO3A-Va, and cyclic commercial contrast agents Gadovist® and Dotarem® as comparison groups material was measured. Specifically, a phantom was prepared by diluting the gadolinium complex in tertiary distilled water to five concentrations (0.0625, 0.125, 0.25, 0.5, 1 mM), and then T1 and T2 relaxation times were measured in 3T MRI. Thus, R (Relaxation rate=1/T) of each concentration was calculated and the relaxivity (r1, r2) result of the gadolinium complex was obtained through linear regression analysis (see FIG. 3) and shown in a following Table 1.

The next data set has as its target amyloid beta polymer (Homo sapiens, UniProt P05067). Put plainly: Amyloid beta polymer targeting ability, MRI phantom experiment. Conditions: incubated with amyloid beta polymer 37° C. 24 hours, washed, 9.4T MR. In kind it is binding. The protocol:
• (1) 221.5 uL of HFIP was added to 1 mg of amyloid beta at a concentration of 1 mM, followed by shaking for 1 hour at room temperature using a shaker to remove preaggregation. • (2) The amyloid beta from which the preaggregation was removed was dried, and 221.5 uL of DMSO was added thereto to achieve a 1 mM concentration. Using a mixer and sonicator, a suspension thereof was prepared, and 878.5 uL of PBS (1×, pH 7.4) was added thereto to achieve a 0.2 mM concentration. • (3) After incubating the suspension at 37° C. for 4 days using a shaker, the polymerized amyloid beta polymer was dispensed by 200 uL. Then, 20 μL of a solution in which each of Gd-DO3A-Va and the commercial contrast agent (Gadovist®) was dissolved in PBS at 2 mM concentration was added thereto. The incubation was carried out thereon at 37° C. for 24 hours using a shaker. • (4) After 24 hours has elapsed, centrifugation was performed thereon to remove the supernatant therefrom. The amyloid beta polymer was washed using PBS. 200 μL of a solution of PBS:DMSO=9:1 was added to a pellet to prepare an MRI phantom sample. As a control, a phantom sample obtained by incubating only the amyloid beta polymer was used. […]

amyloid beta polymer, sequence (P05067 672-713 limits assumed): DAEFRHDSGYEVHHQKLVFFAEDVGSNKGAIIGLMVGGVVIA

Turning to `O=C([O-])CN1CCN(CC(=O)[O-])CCN([C@H](CO)[C@H](O)CO)CCN(CC(=O)[O-])CC1.[Gd+3]` (racemic) [Gadovist ®], in data set [1], the “relaxivity r1” value is recorded as 3.9 ± 0.1 and the “relaxivity r2” value is given as 4.8 ± 0.1. The “contrast enhancement / signal intensity compared to phantom of only amyloid beta polymer” value on amyloid beta polymer is reported as “little difference in contrast enhancement effect”.
Consider `CNC[C@H](O)[C@@H](O)[C@H](O)[C@H](O)CO.O=C([O-])CN1CCN(CC(=O)[O-])CCN(CC(=O)O)CCN(CC(=O)[O-])CC1.[Gd+3]` [Dotarem ®], for which, in data set [1], the “relaxivity r1” value was determined as 3.4 ± 0.1 and the “relaxivity r2” value stood at 3.9 ± 0.2.
